Laboratory results as given in US10889553B2, “Asymmetric triazole benzamide derivatives and the compositions and methods of treatment regarding the same” (NysnoBio Ireland DAC, priority 2017, dated 2021).

Tests used:
AURKA (Aurora A) = AURKA (Aurora A) (Homo sapiens, UniProt O14965); assay: Kinase panel assay; assay type: biochemical
Description: (§1) Compound 42 was also screened in a kinase panel assay.

EGFR (ErbB1) = EGFR (ErbB1) (Homo sapiens, UniProt P00533); assay: Kinase panel assay; assay type: biochemical
Description: as §1

beta 2(h) = beta 2(h) (Homo sapiens, UniProt P07550); assay: Selectivity screen, radioligand displacement; assay type: binding; conditions: read-out: % Inhib beta 2(h)
Description: (§2) If the % inhibition is less than 50%, the test compounds is consider to have no effect.

5-HT3 (h) = 5-HT3 (h) (Homo sapiens, UniProt P46098); assay: Selectivity screen, radioligand displacement; assay type: binding; conditions: read-out: % Inhib 5-HT3 (h)
Description: as §2

dopamine transporter (h) = dopamine transporter (h) (Homo sapiens, UniProt Q01959); assay: Selectivity screen, radioligand displacement; assay type: binding; conditions: read-out: % Inhib dopamine transporter (h)
Description: as §2

[1] = tested on: Ca2+ channel (L, dihydropyridine); assay: Selectivity screen, radioligand displacement; assay type: binding; conditions: Compound 42 at 10 μM
Description: as §2

alpha 1A (h) = alpha 1A (h) (Homo sapiens, UniProt P35348); assay: Selectivity screen, radioligand displacement; assay type: binding; conditions: read-out: % Inhib alpha 1A (h)
Description: as §2

5-HT1B = 5-HT1B (Rattus norvegicus, UniProt P28564); assay: Selectivity screen, radioligand displacement; assay type: binding; conditions: read-out: % Inhib 5-HT1B
Description: as §2

[2] = target: norepinephrine transporter (h) (Homo sapiens, UniProt P23975); assay: Selectivity screen, radioligand displacement; assay type: binding; conditions: read-out: % Inhib norepinephrine transporter (h)
Description: as §2

COX2(h) = COX2(h) (Homo sapiens, UniProt P35354); assay: Selectivity screen, radioligand displacement; assay type: binding; conditions: read-out: % Inhib COX2(h)
Chain of COX2(h) (P35354 18-604): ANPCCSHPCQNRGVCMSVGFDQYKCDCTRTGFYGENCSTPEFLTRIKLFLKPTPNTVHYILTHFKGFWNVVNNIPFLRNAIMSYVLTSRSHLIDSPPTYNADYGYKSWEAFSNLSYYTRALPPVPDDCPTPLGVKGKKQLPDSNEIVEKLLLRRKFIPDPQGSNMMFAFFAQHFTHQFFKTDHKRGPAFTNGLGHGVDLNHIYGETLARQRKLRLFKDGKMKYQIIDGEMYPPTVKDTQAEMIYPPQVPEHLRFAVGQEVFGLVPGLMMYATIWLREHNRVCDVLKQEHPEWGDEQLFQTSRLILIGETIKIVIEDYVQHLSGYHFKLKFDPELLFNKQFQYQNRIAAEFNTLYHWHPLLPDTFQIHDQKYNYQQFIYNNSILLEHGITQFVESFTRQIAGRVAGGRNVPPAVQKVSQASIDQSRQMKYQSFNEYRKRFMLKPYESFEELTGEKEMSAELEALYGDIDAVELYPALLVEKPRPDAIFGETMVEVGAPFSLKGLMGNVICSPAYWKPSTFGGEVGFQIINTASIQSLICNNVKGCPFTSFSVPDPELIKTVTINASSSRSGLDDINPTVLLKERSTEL
Description: as §2

acetylcholinesterase (h) = acetylcholinesterase (h) (Homo sapiens, UniProt P22303); assay: Selectivity screen, radioligand displacement; assay type: binding; conditions: read-out: % Inhib acetylcholinesterase (h)
Chain of acetylcholinesterase (h) (P22303 32-614): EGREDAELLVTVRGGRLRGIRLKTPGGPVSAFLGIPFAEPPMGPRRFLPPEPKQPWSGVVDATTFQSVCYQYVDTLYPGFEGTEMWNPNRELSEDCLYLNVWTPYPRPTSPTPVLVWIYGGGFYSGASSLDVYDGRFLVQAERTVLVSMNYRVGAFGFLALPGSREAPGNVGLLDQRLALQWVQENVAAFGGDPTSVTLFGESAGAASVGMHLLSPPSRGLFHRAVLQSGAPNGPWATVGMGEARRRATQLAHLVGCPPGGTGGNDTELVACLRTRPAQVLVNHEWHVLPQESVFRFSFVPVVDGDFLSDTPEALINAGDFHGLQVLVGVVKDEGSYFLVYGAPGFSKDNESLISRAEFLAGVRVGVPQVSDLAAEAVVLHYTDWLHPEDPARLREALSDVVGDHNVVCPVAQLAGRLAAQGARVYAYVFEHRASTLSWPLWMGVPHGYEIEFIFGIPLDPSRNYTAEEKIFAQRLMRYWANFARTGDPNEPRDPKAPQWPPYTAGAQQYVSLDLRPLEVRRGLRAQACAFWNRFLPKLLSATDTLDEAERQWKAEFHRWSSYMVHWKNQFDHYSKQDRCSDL
Description: as §2

CB2 (h) = CB2 (h) (Homo sapiens, UniProt P34972); assay: Selectivity screen, radioligand displacement; assay type: binding; conditions: read-out: % Inhib CB2 (h)
Chain of CB2 (h) (P34972 whole entry): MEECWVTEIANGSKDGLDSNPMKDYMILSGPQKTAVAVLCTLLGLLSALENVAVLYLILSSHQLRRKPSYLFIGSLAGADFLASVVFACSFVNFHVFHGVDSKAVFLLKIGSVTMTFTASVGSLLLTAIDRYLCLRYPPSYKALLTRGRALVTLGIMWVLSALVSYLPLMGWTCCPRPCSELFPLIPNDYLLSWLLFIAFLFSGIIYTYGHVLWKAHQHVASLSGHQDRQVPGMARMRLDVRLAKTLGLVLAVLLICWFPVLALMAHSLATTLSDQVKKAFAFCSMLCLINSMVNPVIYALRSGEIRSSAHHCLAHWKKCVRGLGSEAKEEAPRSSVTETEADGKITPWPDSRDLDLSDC
Description: as §2

NA+ Channel (Site2) = assay: Selectivity screen, radioligand displacement; assay type: binding; conditions: Compound 42 at 10 μM
Description: as §2

beta 1 (h) = beta 1 (h) (Homo sapiens, UniProt P08588); assay: Selectivity screen, radioligand displacement; assay type: binding; conditions: read-out: % Inhib beta 1 (h)
Description: as §2

5-HT1A (h) = 5-HT1A (h) (Homo sapiens, UniProt P08908); assay: Selectivity screen, radioligand displacement; assay type: binding; conditions: read-out: % Inhib 5-HT1A (h)
Description: as §2

MAO-A = MAO-A (Rattus norvegicus, UniProt P21396); assay: Selectivity screen, radioligand displacement; assay type: binding; conditions: read-out: % Inhib MAO-A
Description: as §2

hERG potassium channel = hERG potassium channel (Homo sapiens, UniProt Q12809); assay: Selectivity screen, radioligand displacement; assay type: binding; conditions: read-out: % Inhib Potassium Channel hERG (human)
Chain of hERG potassium channel (Q12809 whole entry): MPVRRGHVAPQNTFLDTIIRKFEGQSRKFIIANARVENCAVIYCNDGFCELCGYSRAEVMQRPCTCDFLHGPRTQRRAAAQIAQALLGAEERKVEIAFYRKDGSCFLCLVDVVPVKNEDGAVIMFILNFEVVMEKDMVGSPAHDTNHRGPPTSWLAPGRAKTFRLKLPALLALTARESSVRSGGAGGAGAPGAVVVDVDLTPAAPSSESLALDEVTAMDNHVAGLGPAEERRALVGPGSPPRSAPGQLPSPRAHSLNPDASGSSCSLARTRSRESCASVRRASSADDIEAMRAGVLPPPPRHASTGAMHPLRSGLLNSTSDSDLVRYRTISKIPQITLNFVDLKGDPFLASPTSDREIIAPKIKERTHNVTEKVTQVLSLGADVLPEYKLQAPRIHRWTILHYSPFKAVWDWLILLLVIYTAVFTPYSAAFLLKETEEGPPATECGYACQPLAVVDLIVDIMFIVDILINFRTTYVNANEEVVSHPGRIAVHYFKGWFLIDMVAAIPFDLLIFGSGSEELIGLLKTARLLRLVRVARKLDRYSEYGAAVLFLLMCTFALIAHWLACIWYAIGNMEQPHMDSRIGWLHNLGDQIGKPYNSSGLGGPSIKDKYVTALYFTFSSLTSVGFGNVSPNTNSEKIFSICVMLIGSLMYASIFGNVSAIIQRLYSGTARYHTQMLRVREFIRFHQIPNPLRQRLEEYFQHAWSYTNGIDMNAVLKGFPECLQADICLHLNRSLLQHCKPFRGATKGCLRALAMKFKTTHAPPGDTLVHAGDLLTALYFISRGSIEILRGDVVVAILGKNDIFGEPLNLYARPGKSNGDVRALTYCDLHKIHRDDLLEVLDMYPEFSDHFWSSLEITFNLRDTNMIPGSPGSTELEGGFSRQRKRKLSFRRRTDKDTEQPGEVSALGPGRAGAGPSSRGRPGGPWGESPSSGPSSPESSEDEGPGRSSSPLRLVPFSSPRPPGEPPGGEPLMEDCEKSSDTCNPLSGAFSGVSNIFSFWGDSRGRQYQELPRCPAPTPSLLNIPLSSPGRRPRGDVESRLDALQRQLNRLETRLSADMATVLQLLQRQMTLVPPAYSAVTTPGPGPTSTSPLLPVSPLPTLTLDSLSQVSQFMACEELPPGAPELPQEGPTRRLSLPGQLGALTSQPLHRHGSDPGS
Description: as §2

D1 (h) = D1 (h) (Homo sapiens, UniProt P21728); assay: Selectivity screen, radioligand displacement; assay type: binding
Description: as §2

KV channel = assay: Selectivity screen, radioligand displacement; assay type: binding; conditions: Compound 42 at 10 μM
Description: as §2

H1 (h) = H1 (h) (Homo sapiens, UniProt P35367); assay: Selectivity screen, radioligand displacement; assay type: binding
Description: as §2

M1 (h) = M1 (h) (Homo sapiens, UniProt P11229); assay: Selectivity screen, radioligand displacement; assay type: binding
Description: as §2

CCK1 (CCKA) (h) = CCK1 (CCKA) (h) (Homo sapiens, UniProt P32238); assay: Selectivity screen, radioligand displacement; assay type: binding; conditions: read-out: % Inhib CCK1 (CCKA) (h)
Description: as §2

kappa (KOP) = kappa (KOP) (Rattus norvegicus, UniProt P34975); assay: Selectivity screen, radioligand displacement; assay type: binding; conditions: read-out: % Inhib kappa (KOP)
Chain of kappa (KOP) (P34975 whole entry): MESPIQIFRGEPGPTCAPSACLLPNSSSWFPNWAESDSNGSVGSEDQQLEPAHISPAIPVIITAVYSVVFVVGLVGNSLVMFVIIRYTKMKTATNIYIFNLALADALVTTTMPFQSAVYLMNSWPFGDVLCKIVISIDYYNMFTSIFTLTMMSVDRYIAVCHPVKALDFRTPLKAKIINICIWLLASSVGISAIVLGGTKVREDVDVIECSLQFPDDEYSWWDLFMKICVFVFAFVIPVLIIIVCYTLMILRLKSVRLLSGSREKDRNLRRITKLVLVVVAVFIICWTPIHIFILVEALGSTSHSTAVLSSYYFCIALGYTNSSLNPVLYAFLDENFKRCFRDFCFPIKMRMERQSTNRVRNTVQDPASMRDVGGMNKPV
Description: as §2

M2 (h) = M2 (h) (Homo sapiens, UniProt P08172); assay: Selectivity screen, radioligand displacement; assay type: binding; conditions: read-out: % Inhib M2 (h)
Chain of M2 (h) (P08172 whole entry): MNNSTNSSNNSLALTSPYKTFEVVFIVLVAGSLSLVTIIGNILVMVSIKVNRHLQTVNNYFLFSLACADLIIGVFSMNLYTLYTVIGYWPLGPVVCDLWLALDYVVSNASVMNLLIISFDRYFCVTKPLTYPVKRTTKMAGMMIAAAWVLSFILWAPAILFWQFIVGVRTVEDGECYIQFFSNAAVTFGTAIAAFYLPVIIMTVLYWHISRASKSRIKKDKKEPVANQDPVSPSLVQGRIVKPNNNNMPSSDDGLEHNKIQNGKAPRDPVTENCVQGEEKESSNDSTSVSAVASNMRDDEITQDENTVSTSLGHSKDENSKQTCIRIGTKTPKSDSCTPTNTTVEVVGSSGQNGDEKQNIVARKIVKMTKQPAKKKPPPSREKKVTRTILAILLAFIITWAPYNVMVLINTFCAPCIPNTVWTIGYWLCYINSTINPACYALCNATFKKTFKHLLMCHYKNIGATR
Description: as §2

5-HT transporter (h) = 5-HT transporter (h) (Homo sapiens, UniProt P31645); assay: Selectivity screen, radioligand displacement; assay type: binding; conditions: read-out: % Inhib 5-HT transporter (h)
Description: as §2

NMDA = assay: Selectivity screen, radioligand displacement; assay type: binding; conditions: Compound 42 at 10 μM
Description: as §2

alpha 2A (h) = alpha 2A (h) (Homo sapiens, UniProt P08913); assay: Selectivity screen, radioligand displacement; assay type: binding; conditions: read-out: % Inhib alpha 2A (h)
Description: as §2

PDE4D2 (h) = PDE4D2 (h) (Homo sapiens, UniProt Q08499); assay: Selectivity screen, radioligand displacement; assay type: binding; conditions: read-out: % Inhib PDE4D2 (h)
Chain of PDE4D2 (h) (Q08499 303-809): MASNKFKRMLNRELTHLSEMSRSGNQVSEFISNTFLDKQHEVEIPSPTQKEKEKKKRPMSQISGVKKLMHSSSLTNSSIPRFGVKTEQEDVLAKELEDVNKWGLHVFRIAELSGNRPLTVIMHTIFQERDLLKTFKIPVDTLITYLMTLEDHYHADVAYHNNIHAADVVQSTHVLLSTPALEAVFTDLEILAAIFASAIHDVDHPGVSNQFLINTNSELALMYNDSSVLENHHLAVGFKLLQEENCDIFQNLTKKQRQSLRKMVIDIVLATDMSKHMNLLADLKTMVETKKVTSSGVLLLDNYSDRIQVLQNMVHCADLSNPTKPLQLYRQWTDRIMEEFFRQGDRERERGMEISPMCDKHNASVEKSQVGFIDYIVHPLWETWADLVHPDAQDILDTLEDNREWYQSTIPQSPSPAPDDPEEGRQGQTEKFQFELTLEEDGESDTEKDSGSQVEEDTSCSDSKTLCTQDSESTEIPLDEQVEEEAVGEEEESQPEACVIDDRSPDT
Description: as §2

A2A(h) = A2A(h) (Homo sapiens, UniProt P29274); assay: Selectivity screen, radioligand displacement; assay type: binding; conditions: read-out: % Inhib A2A(h)
Chain of A2A(h) (P29274 whole entry): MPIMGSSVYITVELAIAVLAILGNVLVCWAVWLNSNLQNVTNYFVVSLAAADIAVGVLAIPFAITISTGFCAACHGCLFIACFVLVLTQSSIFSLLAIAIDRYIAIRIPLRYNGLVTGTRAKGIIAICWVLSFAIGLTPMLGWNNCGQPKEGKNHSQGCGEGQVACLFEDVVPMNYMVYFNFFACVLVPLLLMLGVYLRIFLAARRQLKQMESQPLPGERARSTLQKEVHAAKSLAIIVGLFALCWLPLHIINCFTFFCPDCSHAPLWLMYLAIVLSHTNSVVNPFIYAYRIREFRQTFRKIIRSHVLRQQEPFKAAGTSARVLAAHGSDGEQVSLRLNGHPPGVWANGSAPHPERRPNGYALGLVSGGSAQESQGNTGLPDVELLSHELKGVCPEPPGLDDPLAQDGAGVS
Description: as §2

COX1(h) = COX1(h) (Homo sapiens, UniProt P23219); assay: Selectivity screen, radioligand displacement; assay type: binding; conditions: read-out: % Inhib COX1(h)
Description: as §2

delta (DOP) (h) = delta (DOP) (h) (Homo sapiens, UniProt P41143); assay: Selectivity screen, radioligand displacement; assay type: binding; conditions: read-out: % Inhib delta (DOP) (h)
Description: as §2

CB1 (h) = CB1 (h) (Homo sapiens, UniProt P21554); assay: Selectivity screen, radioligand displacement; assay type: binding; conditions: read-out: % Inhib CB1 (h)
Description: as §2

M3 (h) = M3 (h) (Homo sapiens, UniProt P20309); assay: Selectivity screen, radioligand displacement; assay type: binding; conditions: read-out: % Inhib M3 (h)
Description: as §2

5-HT2A (h) = 5-HT2A (h) (Homo sapiens, UniProt P28223); assay: Selectivity screen, radioligand displacement; assay type: binding; conditions: read-out: % Inhib 5-HT2A (h)
Chain of 5-HT2A (h) (P28223 whole entry): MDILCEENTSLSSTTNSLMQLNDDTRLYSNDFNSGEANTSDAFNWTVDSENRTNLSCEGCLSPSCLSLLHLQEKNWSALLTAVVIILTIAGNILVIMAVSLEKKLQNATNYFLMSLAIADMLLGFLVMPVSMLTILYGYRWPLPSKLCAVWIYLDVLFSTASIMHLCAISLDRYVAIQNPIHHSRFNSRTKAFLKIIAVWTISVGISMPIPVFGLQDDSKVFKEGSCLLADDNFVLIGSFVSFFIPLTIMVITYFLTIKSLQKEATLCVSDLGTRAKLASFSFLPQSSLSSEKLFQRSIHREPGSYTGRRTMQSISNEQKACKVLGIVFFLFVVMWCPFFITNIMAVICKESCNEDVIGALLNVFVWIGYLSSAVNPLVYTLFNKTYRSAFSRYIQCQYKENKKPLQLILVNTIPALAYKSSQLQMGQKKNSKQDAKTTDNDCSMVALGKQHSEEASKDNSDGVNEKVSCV
Description: as §2

ETA (h) = ETA (h) (Homo sapiens, UniProt P25101); assay: Selectivity screen, radioligand displacement; assay type: binding; conditions: read-out: % Inhib ETA (h)
Description: as §2

H2 (h) = H2 (h) (Homo sapiens, UniProt P25021); assay: Selectivity screen, radioligand displacement; assay type: binding; conditions: read-out: % Inhib H2 (h)
Description: as §2

Cc1ccccc1C(=O)Nc1nc(NC(=O)c2ccccc2C)n(-c2ccc(OC(F)(F)F)cc2)n1 [Compound 42, N,N′-(1-(4-(trifluoromethoxy)phenyl)-1H-1,2,4-triazole-3,5-diyl)bis(2-methylbenzamide)]
inhibition at 10 µM (AURKA (Aurora A)): 4%
inhibition at 10 µM (EGFR (ErbB1)): 8%
inhibition at 10 µM (beta 2(h)): 9%
inhibition at 10 µM (5-HT3 (h)): < 1%
inhibition at 10 µM (dopamine transporter (h)): 13%
% Inhib Ca2+ channel (L, dihydropyridine) [1]: 45%
inhibition at 10 µM (alpha 1A (h)): 16%
inhibition at 10 µM (5-HT1B): 1%
inhibition at 10 µM [2]: 1%
inhibition at 10 µM (COX2(h)): 1%
inhibition at 10 µM (acetylcholinesterase (h)): 1%
inhibition at 10 µM (CB2 (h)): < 1%
% Inhib NA+ Channel (Site2) (NA+ Channel (Site2)): 43%
inhibition at 10 µM (beta 1 (h)): < 1%
inhibition at 10 µM (5-HT1A (h)): 10%
inhibition at 10 µM (MAO-A): 4%
inhibition at 10 µM (hERG potassium channel): 1%
inhibition at 10 µM (D1 (h)): < 1%
% Inhib KV channel (KV channel): 1%
inhibition at 10 µM (H1 (h)): < 1%
inhibition at 10 µM (M1 (h)): 4%
inhibition at 10 µM (CCK1 (CCKA) (h)): < 1%
inhibition at 10 µM (kappa (KOP)): 3%
inhibition at 10 µM (M2 (h)): < 1%
inhibition at 10 µM (5-HT transporter (h)): 10%
% Inhib NMDA (NMDA): 8%
inhibition at 10 µM (alpha 2A (h)): < 1%
inhibition at 10 µM (PDE4D2 (h)): 35%
inhibition at 10 µM (A2A(h)): 7%
inhibition at 10 µM (COX1(h)): 19%
inhibition at 10 µM (delta (DOP) (h)): 9%
inhibition at 10 µM (CB1 (h)): < 1%
inhibition at 10 µM (M3 (h)): < 1%
inhibition at 10 µM (5-HT2A (h)): 4%
inhibition at 10 µM (ETA (h)): < 1%
inhibition at 10 µM (H2 (h)): < 1%
